System: HCV replicon
Experiment: HCV Replicon Assay (luciferase, 5-2 Luc replicon cells)
Assay type: cell-based
Conditions: 5-2 Luc replicon cells (Huh7), 24-48 hours with compound, luciferase counts
Description: Actively dividing 5-2 Luc replicon cells were seeded at the density of 5000-7500 cells/well in the volume of 90 μl/well into 96 well plate(s). The cells were then incubated at 37° C. and 5% CO2 for 24 hours. The 5-2 cells are replicon cells licensed from Ralf Bartenschlager (Germany) and have a self-replicating RNA molecule in the Huh7 cell; the RNA contains HCV non-structural proteins that make the self-replication possible.
Various concentrations of compounds (in the volume of 10 μl) were added into each well 24 hours after seeding the cells. The cells were incubated for another 24-48 hours before luciferase assay.
After incubating the 5-2 Luc replicon cells with the compounds for 24-48 hours, media were aspirated from each well and Bright-Glo (Promega) luciferase assay reagents were added to each well according to the manufacturer′s manual. Briefly, the Bright-Glo reagent was diluted with equal volume of PBS and an aliquote (100 μl) was added to each well. After incubating the plate at room temperature for 5 minutes, luciferase counts were taken using a luminometer.

| SMILES | Activity (concentration of inhibitory activity) |
| --- | --- |
| Cc1cc2cc(NC(=O)C3CCC(=O)C3)ccc2n1C(=O)c1c(Cl)cccc1Cl (stereo not drawn) [Compound 16a-14] | a (“a” indicates inhibitory activity at a concentration of less than 10 micromolar) |
| COc1cccc(OC)c1C(=O)n1c(C)cc2cc(NC(=O)C3CC3)ccc21 [Compound 16b4, 5-Cyclopropanecarbonylamino-1-(2′,6′-dimethoxybenzoyl)-2-methylindole] | a (“a” indicates inhibitory activity at a concentration of less than 10 micromolar) |
| COc1cccc(OC)c1C(=O)n1c(C)cc2cc(NC(=O)C3CCCC3)ccc21 [Compound 16b-1, 5-Cyclopentanecarbonylamino-1-(2′,6′-dimethoxybenzoyl)-2-methylindole] | a (“a” indicates inhibitory activity at a concentration of less than 10 micromolar) |
| COc1cccc(OC)c1C(=O)n1c(C)cc2cc(NC(=O)C3CCCCC3)ccc21 [Compound 16b-2, 5-Cyclohexanecarbonylamino-1 (2′,6′-dimethoxybenzoyl)-2-methylindole] | a (“a” indicates inhibitory activity at a concentration of less than 10 micromolar) |
| COc1cccc(OC)c1C(=O)n1c(C)cc2cc(NC(=O)C3CCC3)ccc21 [Compound 16b-3, 5-Cyclobutanecarbonylamino-1-(2′,6′-dimethoxybenzoyl)-2-methylindole] | a (“a” indicates inhibitory activity at a concentration of less than 10 micromolar) |
| COc1cccc(OC)c1C(=O)n1c(C)cc2cc(NC(=O)c3cccnc3)ccc21 [Compound 16b-5, 1-(2′,6′-Dimethoxybenzoyl)-5-(3-pyridylcarbonyl)amino-2-methylindole] | a (“a” indicates inhibitory activity at a concentration of less than 10 micromolar) |
| COc1cccc(OC)c1C(=O)n1c(C)cc2cc(NC(=O)C3CCC(=O)C3)ccc21 (stereo not drawn) [Compound 16b-6, 1-(2′,6′-Dimethoxybenzoyl)-5-(3-oxo-1-cyclopentanecarbonyl)amino-2-methylindole] | a (“a” indicates inhibitory activity at a concentration of less than 10 micromolar) |
| Cc1cc2cc(NC(=O)C3CCCC3)ccc2n1C(=O)c1c(F)cccc1C(F)(F)F [Compound 16c-1, 5-Cyclopentanecarbonylamino-1-(2′-fluoro-6′-trifluoromethylbenzoyl)-2-methylindole] | a (“a” indicates inhibitory activity at a concentration of less than 10 micromolar) |
| Cc1cc2cc(NC(=O)C3CCCCC3)ccc2n1C(=O)c1c(F)cccc1C(F)(F)F [Compound 16c-2, 5-Cyclohexanecarbonylamino-1-(2′-fluoro-6′-trifluoromethylbenzoyl)-2-methylindole] | a (“a” indicates inhibitory activity at a concentration of less than 10 micromolar) |
| Cc1cc2cc(NC(=O)C3CCC3)ccc2n1C(=O)c1c(F)cccc1C(F)(F)F [Compound 16c-3, 5-Cyclobutanecarbonylamino-1-(2′-fluoro-6′-trifluoromethylbenzoyl)-2-methylindole] | a (“a” indicates inhibitory activity at a concentration of less than 10 micromolar) |
| Cc1cc2cc(NC(=O)C3CC3)ccc2n1C(=O)c1c(F)cccc1C(F)(F)F [Compound 16c-4, 5-Cyclopropanecarbonylamino-1-(2′fluoro-6′-trifluoromethylbenzoyl)-2-methylindole] | a (“a” indicates inhibitory activity at a concentration of less than 10 micromolar) |
| Cc1cc2cc(NC(=O)C3CCC(=O)C3)ccc2n1C(=O)c1c(F)cccc1C(F)(F)F (stereo not drawn) [Compound 16c-5, 1-(2′-Fluoro-6′-trifluoromethylbenzoyl)-5-(3-oxo-1-cyclopentanecarbonyl)amino-2-methylindole] | a (“a” indicates inhibitory activity at a concentration of less than 10 micromolar) |
